{"source": "patent US20080269285A1", "about": "“Novel Compounds of the Family of Iminosugars, Uses Thereof for Trewating Lysosomal Diseases, and Method for Preparing Same” (CENTRE NATIONAL DE LA RECHERCHE SCIENTIFIQUE, priority 2005, published 2008)", "key": {"[1]": {"biological_target": "T1, isomaltase (Rattus norvegicus, UniProt P23739)", "T1 construct": "from tissue; host or cells: rat small intestine brush border membranes", "T1 sequence (P23739 1-1013 limits assumed)": "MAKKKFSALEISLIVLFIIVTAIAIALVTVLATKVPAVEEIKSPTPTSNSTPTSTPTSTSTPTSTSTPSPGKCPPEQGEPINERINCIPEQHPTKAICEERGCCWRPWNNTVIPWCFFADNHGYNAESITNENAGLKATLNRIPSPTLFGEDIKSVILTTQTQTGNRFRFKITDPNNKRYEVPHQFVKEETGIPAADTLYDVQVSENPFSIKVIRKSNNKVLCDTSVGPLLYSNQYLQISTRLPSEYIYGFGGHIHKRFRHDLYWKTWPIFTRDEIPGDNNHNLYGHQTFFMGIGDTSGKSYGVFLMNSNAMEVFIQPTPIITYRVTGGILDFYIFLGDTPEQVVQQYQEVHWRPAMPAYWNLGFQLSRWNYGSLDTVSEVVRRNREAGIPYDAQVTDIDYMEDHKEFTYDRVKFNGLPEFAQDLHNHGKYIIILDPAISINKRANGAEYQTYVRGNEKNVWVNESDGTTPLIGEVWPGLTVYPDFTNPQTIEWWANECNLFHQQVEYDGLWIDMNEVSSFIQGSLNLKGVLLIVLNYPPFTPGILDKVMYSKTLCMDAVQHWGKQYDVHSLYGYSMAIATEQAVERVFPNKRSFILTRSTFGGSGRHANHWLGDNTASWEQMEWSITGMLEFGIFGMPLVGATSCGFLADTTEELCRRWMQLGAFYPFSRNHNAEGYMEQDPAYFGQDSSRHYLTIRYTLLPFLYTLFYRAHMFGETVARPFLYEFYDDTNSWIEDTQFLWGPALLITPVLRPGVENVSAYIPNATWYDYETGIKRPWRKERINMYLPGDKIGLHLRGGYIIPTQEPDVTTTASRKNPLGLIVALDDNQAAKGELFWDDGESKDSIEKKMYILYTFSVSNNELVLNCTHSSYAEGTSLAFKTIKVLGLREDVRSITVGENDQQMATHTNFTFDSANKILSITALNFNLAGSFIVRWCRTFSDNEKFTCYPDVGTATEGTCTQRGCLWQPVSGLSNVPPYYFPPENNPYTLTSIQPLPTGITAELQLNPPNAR", "T1 sequence (P23739 1014-1841 limits assumed)": "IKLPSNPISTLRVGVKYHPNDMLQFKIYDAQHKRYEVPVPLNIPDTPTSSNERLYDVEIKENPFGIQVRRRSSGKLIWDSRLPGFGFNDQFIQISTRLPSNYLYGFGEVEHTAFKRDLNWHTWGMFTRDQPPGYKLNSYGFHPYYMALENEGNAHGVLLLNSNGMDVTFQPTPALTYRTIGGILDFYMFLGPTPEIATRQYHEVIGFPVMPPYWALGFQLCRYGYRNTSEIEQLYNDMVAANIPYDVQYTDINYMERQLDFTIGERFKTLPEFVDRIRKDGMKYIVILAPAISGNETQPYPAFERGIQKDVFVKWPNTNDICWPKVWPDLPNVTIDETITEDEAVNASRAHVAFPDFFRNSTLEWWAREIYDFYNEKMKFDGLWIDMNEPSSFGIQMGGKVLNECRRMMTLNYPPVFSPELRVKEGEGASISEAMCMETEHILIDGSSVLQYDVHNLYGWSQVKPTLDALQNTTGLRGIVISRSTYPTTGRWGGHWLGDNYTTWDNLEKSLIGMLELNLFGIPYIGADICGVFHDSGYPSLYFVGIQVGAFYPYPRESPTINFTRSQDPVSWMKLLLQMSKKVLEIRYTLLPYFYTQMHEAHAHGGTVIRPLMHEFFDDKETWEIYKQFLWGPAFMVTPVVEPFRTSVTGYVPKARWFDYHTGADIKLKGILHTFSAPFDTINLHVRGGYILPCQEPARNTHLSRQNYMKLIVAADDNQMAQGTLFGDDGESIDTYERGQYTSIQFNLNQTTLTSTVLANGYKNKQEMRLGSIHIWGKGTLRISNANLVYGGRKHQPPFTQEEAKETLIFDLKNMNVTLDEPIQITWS", "test": "Inhibition of rat intestinal isomaltase", "type": "biochemical", "conditions": "rat intestine; read-out: IC50 α-glucosidase isomaltase", "source_text": "(§1) The α-glucosidases of rice and of yeast, as well as the β-glucosidases of sweet almond and Caldocellum saccharolyticum are obtained from Sigma Chemical Co. ‘Brush border’ membranes prepared from rat small intestine according to Kessler's method (Kessler, M.; Acuto, O.; Strelli, C.; Murer, H.; Semenza, G. A. Biochem. Biophys. Acta 1978, 506, 136) were used as a source of intestinal maltase, sucrase and isomaltase. The activities of rice α-glucosidase as well as of the intestinal glucosidases were determined using an appropriate disaccharide as substrate. The D-glucose thus released was assayed by colorimetry using the Wako glucose B-test (Wako Pure Chemical Ind., Japan). The activities on the other glycosidases were determined using the appropriate p-nitrophenyl glycoside as a substrate with the optimum pH of each enzyme. The reaction is stopped by adding 400 mM Na2CO3. The p-nitrophenol thus released was assayed by spectrophotometry at 400 nm. For the β-glucocerebrosidase, the technique used is that described in Kato, A.; Kato, N.; Kano, E.; Adachi, I.; Ikeda, K.; Yu, L.; Okamoto, T.; Banba, Y.; Ouchi, H.; Takahata, H.; Asano, N. Biological properties of D- and L-1-deoxyazasugars. J. Med. Chem. 2005, 48, 2036-2044."}, "[2]": {"biological_target": "T2, sucrase (Rattus norvegicus, UniProt P23739)", "T2 construct": "from tissue; host or cells: rat small intestine brush border membranes", "T2 sequence (P23739 1-1013 limits assumed)": "as the sequence (P23739 1-1013 limits assumed) above", "T2 sequence (P23739 1014-1841 limits assumed)": "as the sequence (P23739 1014-1841 limits assumed) above", "test": "Inhibition of rat intestinal sucrase", "type": "biochemical", "conditions": "rat intestine; read-out: IC50 α-glucosidase sucrase", "source_text": "as §1"}, "[3]": {"biological_target": "T3, α-Mannosidase (Homo sapiens, UniProt O00754)", "T3 construct": "endogenous in cells; host or cells: fibroblasts of Gaucher patients (type 1, 2, 3)", "T3 sequence (O00754 50-1011)": "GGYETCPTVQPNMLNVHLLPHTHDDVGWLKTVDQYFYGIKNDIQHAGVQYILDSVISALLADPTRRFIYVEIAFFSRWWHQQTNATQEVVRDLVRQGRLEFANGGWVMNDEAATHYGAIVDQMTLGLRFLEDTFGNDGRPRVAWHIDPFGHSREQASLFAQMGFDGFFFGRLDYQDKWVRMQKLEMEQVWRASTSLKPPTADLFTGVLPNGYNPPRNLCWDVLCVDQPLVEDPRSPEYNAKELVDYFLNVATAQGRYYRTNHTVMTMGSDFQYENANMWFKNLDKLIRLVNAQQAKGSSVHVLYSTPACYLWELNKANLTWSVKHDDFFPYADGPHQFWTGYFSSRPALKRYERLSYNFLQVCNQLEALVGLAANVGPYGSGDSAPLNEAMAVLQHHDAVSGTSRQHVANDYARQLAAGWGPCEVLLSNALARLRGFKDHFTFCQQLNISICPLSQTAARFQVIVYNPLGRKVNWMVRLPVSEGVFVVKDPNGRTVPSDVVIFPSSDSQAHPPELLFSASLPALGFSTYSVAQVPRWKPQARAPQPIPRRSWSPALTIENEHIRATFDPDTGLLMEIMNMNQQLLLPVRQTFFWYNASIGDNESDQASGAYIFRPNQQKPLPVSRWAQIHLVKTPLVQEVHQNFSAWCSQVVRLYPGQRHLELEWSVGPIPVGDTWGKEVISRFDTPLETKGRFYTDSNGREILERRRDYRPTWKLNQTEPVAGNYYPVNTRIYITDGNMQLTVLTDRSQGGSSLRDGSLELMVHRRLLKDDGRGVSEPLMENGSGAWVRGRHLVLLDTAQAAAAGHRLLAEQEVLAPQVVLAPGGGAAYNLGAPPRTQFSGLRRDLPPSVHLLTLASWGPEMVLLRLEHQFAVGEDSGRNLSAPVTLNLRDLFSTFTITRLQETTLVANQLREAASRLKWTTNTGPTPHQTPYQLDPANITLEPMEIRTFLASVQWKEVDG", "test": "α-Mannosidase activity in Gaucher fibroblasts", "type": "cell-based", "description": "(§2) The tests were carried out under the conditions described in: Sawkar, A. R.; Cheng, W.-C.; Beutler, E.; Wong, C.-H.; Balch, W. E.; Kelly, J. W. Chemical chaperones increase the cellular activity of N370S beta-glucosidase: a therapeutic strategy for Gaucher's disease. Proc. Natl. Acad. Sci. U.S.A. 2002, 99, 15428-15433."}, "[4]": {"biological_target": "maltase", "test": "Inhibition of rat intestinal maltase", "type": "biochemical", "conditions": "rat intestine; read-out: IC50 α-glucosidase maltase", "source_text": "as §1"}, "[5]": {"biological_target": "T4, rice α-glucosidase (Oryza sativa subsp. japonica, UniProt Q653V7)", "T4 construct": "purchased Sigma Chemical Co", "T4 sequence (Q653V7 34-885)": "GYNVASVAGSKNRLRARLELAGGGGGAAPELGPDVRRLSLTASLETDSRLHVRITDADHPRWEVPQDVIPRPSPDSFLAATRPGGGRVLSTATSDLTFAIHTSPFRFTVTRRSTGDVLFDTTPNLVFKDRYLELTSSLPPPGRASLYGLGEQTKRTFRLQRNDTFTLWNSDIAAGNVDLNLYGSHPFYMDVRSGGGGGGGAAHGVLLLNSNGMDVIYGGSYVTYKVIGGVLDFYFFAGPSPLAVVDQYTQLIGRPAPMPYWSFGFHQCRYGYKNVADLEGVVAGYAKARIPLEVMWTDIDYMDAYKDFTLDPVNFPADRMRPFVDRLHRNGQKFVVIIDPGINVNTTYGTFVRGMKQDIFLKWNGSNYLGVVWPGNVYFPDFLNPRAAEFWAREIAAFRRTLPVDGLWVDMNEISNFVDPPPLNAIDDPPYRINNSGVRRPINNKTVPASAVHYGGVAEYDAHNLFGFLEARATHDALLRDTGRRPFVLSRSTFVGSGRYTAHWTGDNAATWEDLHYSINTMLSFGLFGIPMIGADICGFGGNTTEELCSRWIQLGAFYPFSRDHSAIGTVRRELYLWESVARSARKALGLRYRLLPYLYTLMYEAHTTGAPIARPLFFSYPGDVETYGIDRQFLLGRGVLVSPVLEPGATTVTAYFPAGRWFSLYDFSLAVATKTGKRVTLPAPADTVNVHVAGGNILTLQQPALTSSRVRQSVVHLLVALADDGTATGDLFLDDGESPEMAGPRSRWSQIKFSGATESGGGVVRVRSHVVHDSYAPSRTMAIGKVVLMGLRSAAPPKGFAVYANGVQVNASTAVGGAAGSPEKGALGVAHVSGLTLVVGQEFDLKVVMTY", "test": "Inhibition of rice α-glucosidase (disaccharide substrate, glucose colorimetry)", "type": "biochemical", "conditions": "rice enzyme", "source_text": "as §1"}, "[6]": {"biological_target": "β-glucosidase sweet almond", "test": "Inhibition of sweet almond β-glucosidase", "type": "biochemical", "source_text": "as §1"}, "[7]": {"test_system": "other lysosomal glycosidases", "test": "Effects on other lysosomal glycosidases in Gaucher fibroblasts", "type": "cell-based, human", "conditions": "for Effects on the activity of other glycosidases: Gaucher fibroblasts, Table 2"}, "[8]": {"biological_target": "T5, α-Glucosidase (Homo sapiens, UniProt P10253)", "T5 construct": "endogenous in cells; host or cells: fibroblasts of Gaucher patients (type 1, 2, 3)", "test": "α-Glucosidase activity in Gaucher fibroblasts", "type": "cell-based", "description": "as §2"}, "[9]": {"biological_target": "T6, β-glucosidase Caldocellum saccharolyticum (Caldicellulosiruptor saccharolyticus, UniProt P10482)", "T6 construct": "purchased Sigma Chemical Co", "T6 sequence (P10482 whole entry)": "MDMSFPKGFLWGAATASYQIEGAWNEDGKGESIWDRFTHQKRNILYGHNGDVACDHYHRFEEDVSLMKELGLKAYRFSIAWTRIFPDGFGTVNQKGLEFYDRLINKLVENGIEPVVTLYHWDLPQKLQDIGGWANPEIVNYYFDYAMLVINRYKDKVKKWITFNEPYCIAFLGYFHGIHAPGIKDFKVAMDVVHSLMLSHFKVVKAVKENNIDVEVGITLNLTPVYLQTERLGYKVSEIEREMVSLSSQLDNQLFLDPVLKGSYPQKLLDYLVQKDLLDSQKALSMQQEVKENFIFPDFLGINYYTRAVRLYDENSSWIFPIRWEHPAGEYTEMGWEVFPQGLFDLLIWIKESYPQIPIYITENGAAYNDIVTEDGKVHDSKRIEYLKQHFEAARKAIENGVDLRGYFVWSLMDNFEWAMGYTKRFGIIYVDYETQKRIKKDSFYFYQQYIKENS", "test": "Inhibition of Caldocellum saccharolyticum β-glucosidase", "type": "biochemical", "source_text": "as §1"}, "[10]": {"test_system": "β-glucocerebrosidase", "test": "Intracellular β-glucocerebrosidase activity in type 3 Gaucher fibroblasts", "type": "cell-based, human", "conditions": "factor of residual β-glucocerebrosidase activity, 10 nM"}, "[11]": {"biological_target": "T7, human β-glucocerebrosidase (Homo sapiens, UniProt P04062)", "T7 sequence (P04062 40-536)": "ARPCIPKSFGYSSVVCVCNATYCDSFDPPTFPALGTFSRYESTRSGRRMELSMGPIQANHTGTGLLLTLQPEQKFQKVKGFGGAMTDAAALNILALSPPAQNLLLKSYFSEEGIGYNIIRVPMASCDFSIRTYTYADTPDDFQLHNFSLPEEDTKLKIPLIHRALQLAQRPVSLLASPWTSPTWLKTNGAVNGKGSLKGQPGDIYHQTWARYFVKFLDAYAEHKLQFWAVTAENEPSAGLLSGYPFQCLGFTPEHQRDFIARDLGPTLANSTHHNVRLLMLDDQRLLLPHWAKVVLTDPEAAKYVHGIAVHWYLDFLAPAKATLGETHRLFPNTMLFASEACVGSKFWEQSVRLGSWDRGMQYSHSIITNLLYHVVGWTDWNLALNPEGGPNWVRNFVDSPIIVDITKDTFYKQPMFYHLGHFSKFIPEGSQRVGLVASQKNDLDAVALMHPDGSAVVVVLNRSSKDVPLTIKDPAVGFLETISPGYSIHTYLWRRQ", "test": "Inhibition tests on human β-glucocerebrosidase", "type": "biochemical", "conditions": "for IC50: read-out: IC50 β-glucocérébrosidase"}, "[12]": {"test_system": "human β-glucocerebrosidase", "test": "Intracellular β-glucocerebrosidase activity in fibroblasts of Gaucher patients (type 1, 2 or 3)", "type": "cell-based", "conditions": "fibroblasts type 1, 2 or 3; very low quantities"}, "[13]": {"test_system": "β-glucocerebrosidase", "test": "Intracellular β-glucocerebrosidase activity in type 1 Gaucher fibroblasts", "type": "cell-based, human", "conditions": "factor of residual β-glucocerebrosidase activity, 10 nM"}, "[14]": {"test_system": "α-glucosidases", "test": "Activity on the different α-glucosidases tested", "type": "biochemical", "source_text": "as §1"}, "[15]": {"conditions": "type 2 Gaucher fibroblasts, 50 μM"}}, "note": "Read-outs that look alike come from different tables or passages of the source."}
{"smiles": "CCCCCCCCCN1C[C@H](O)[C@@H](O)[C@H](O)[C@H]1CO", "note": "[2′, N-nonyl-1-deoxynojirimycin, reference compound]", "values": [{"measurement": "IC50", "setting": "[1]", "value": 0.23, "unit": "µM"}, {"measurement": "IC50", "setting": "[2]", "value": 0.66, "unit": "µM"}, {"measurement": "α-Mannosidase inhibition", "setting": "[3]; type 1 Gaucher fibroblasts", "value": "slight inhibition"}, {"measurement": "α-Mannosidase inhibition", "setting": "[3]; [15]", "value": "slight inhibition"}, {"measurement": "α-Mannosidase inhibition", "setting": "[3]; type 3 Gaucher fibroblasts", "value": "no inhibition"}, {"measurement": "IC50", "setting": "[4]", "value": 1.3, "unit": "µM"}, {"measurement": "IC50", "setting": "[5]", "value": 0.08, "unit": "µM"}, {"measurement": "IC50", "setting": "[6]", "value": 150, "unit": "µM"}, {"measurement": "Effects on the activity of other glycosidases", "setting": "[7]", "value": "Marked effects"}, {"measurement": "inhibition at 50 µM", "setting": "[8]; type 1 Gaucher fibroblasts, 50 μM", "value": 70, "unit": "%"}, {"measurement": "α-Glucosidase inhibition", "setting": "[8]; [15]", "value": "significant inhibition"}, {"measurement": "α-Glucosidase inhibition", "setting": "[8]; type 3 Gaucher fibroblasts", "value": "significant inhibition"}, {"measurement": "IC50", "setting": "[9]", "value": 80, "unit": "µM"}]}
{"smiles": "CCCCCCCCC[C@H]1NC[C@@H](O)[C@H](O)[C@H]1O", "note": "[Compound 1′a, α-1-C-nonyliminoxylitol]", "values": [{"measurement": "IC50", "setting": "[1]", "value": "> 1000", "unit": "µM"}, {"measurement": "IC50", "setting": "[2]", "value": "> 1000", "unit": "µM"}, {"measurement": "α-Mannosidase inhibition", "setting": "[3]; type 1-3 Gaucher fibroblasts", "value": "no inhibition"}, {"measurement": "Increase in the enzymatic activity (type 3 fibroblasts)", "setting": "[10]", "value": 1.9}, {"measurement": "Increase in the enzymatic activity (type 3 fibroblasts)", "setting": "[10]; listed as drawing 105", "value": "×1.9 to 10 nM"}, {"measurement": "IC50", "setting": "[4]", "value": "> 1000", "unit": "µM"}, {"measurement": "IC50", "setting": "[11]; human enzyme", "value": 0.0068, "unit": "µM"}, {"measurement": "times more active than N-nonyl-1-deoxynojirimycin 2′", "setting": "[11]; human β-glucocerebrosidase", "value": 150, "unit": "times"}, {"measurement": "Ki", "setting": "[11]; read-out: inhibition constant (Ki) human β-glucocerebrosidase", "value": 0.002, "unit": "µM"}, {"measurement": "IC50", "setting": "[5]", "value": "> 1000", "unit": "µM"}, {"measurement": "IC50", "setting": "[6]", "value": 1.9, "unit": "µM"}, {"measurement": "action on other lysosomal glycosidases", "setting": "[7]; 10 nM", "value": "without inhibiting the action of other lysosomal glycosidases"}, {"measurement": "Effects on the activity of other glycosidases", "setting": "[7]", "value": "No effect"}, {"measurement": "α-Glucosidases inhibition", "setting": "[8]; type 1-3 Gaucher fibroblasts", "value": "no inhibition"}, {"measurement": "residual enzymatic activity of human β-glucocerebrosidase", "setting": "[12]", "value": "double"}, {"measurement": "Increase in the enzymatic activity (type 1 fibroblasts)", "setting": "[13]", "value": 1.8}, {"measurement": "Increase in the enzymatic activity (type 1 fibroblasts)", "setting": "[13]; listed as drawing 105", "value": "×1.8 to 10 nM"}, {"measurement": "IC50", "setting": "[9]", "value": 800, "unit": "µM"}, {"measurement": "activity on the different α-glucosidases tested", "setting": "[14]", "value": "no activity"}]}
{"smiles": "CCCCCCCCCCCC[C@H]1NC[C@@H](O)[C@H](O)[C@H]1O", "note": "[Compound 1′b]", "values": [{"measurement": "Ki", "setting": "[11]; human enzyme, Table 1, read-out: value of Ki β-glucocérébrosidase (in brackets)", "value": 0.031, "unit": "µM"}, {"measurement": "IC50", "setting": "[11]; human enzyme", "value": 0.012, "unit": "µM"}]}
